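Results reflect a 48-hour exposure of cells in 96-well plates to compound at five concentrations. Abbreviation: GI50, concentration required for 50% inhibition of growth. Definition used: TGI = concentration required for complete inhibition of growth.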
Legend:
Assay in all cases: growth of human tumour cells (NCI), 48 h
[1] = test system: HCC-2998 colon
[2] = test system: ACHN renal
[3] = test system: LOX IMVI melanoma
[4] = test system: UACC-62 melanoma
[5] = test system: NCI-H522 lung
[6] = test system: U251 CNS
[7] = test system: SN12C renal
[8] = test system: BT-549 breast
[9] = test system: SK-MEL-5 melanoma
[10] = test system: OVCAR-8 ovarian
[11] = test system: SF-539 CNS
[12] = test system: SF-295 CNS
[13] = test system: HOP-92 NSCLC
[14] = test system: HL-60(TB) leukemia
[15] = test system: RPMI-8226 leukemia
[16] = test system: SNB-19 CNS
[17] = test system: DU-145 prostate
[18] = test system: OVCAR-5 ovarian
[19] = test system: HS 578T breast
[20] = test system: CAKI-1 renal
[21] = test system: MOLT-4 leukemia
[22] = test system: SF-268 CNS
[23] = test system: SK-MEL-2 melanoma
[24] = test system: NCI-H23 lung
[25] = test system: HCT-15 colon
[26] = test system: A549 NSCLC
[27] = test system: NCI-H460 lung
[28] = test system: TK-10 renal
[29] = test system: MDA-MB-435
[30] = test system: PC-3 prostate
[31] = test system: CCRF-CEM leukemia
[32] = test system: SK-MEL-28 melanoma
[33] = test system: MDA-MB-231 breast
[34] = test system: M14 melanoma
[35] = test system: IGROV1 ovarian
[36] = test system: OVCAR-3 ovarian
[37] = test system: NCI/ADR-RES ovarian
[38] = test system: SK-OV-3 ovarian
[39] = test system: UO-31 renal
[40] = test system: COLO 205 colon
[41] = test system: KM12 colon
[42] = test system: SNB-75 CNS
[43] = test system: HT29 colon
[44] = test system: EKVX NSCLC
[45] = test system: K-562 leukemia
[46] = test system: MCF7 breast
[47] = test system: A498 renal
[48] = test system: NCI-H226 lung
[49] = test system: OVCAR-4 ovarian
[50] = test system: RXF 393 renal
[51] = test system: SW-620 colon
[52] = test system: 786-0 renal
[53] = test system: T-47D breast
[54] = test system: UACC-257 melanoma
[55] = test system: HOP-62 NSCLC
[56] = test system: HCT-116 colon
[57] = test system: MALME-3M melanoma

Compound: C[C@@H]1CN(c2ccc3ncc(C#Cc4cncc(C(=O)Nc5ccc(CN6CCN(C)CC6)c(C(F)(F)F)c5)c4)n3n2)C[C@H](C)O1
- GI50 [1]: 153 nM
- TGI [1]: 956 nM
- GI50 [2]: 37.5 nM
- TGI [2]: 0.211 µM
- GI50 [3]: 36.8 nM
- TGI [3]: 144 nM
- GI50 [4]: 138 nM
- TGI [4]: 1.01 µM
- GI50 [5]: 33.9 nM
- TGI [5]: 181 nM
- GI50 [6]: 119 nM
- TGI [6]: 1.3 µM
- GI50 [7]: 26.9 nM
- TGI [7]: 275 nM
- GI50 [8]: 135 nM
- TGI [8]: 0.411 µM
- GI50 [9]: 270 nM
- TGI [9]: 1160 nM
- GI50 [10]: 176 nM
- TGI [10]: 0.991 µM
- GI50 [11]: 33.2 nM
- TGI [11]: 135 nM
- GI50 [12]: 214 nM
- TGI [12]: 1530 nM
- GI50 [13]: 28.8 nM
- TGI [13]: 118 nM
- GI50 [14]: 50.7 nM
- TGI [14]: 312 nM
- GI50 [15]: 258 nM
- TGI [15]: 5.64 µM
- GI50 [16]: 325 nM
- TGI [16]: 1.15 µM
- GI50 [17]: 50.4 nM
- TGI [17]: 292 nM
- GI50 [18]: 157 nM
- TGI [18]: 0.975 µM
- GI50 [19]: 32.8 nM
- TGI [19]: 348 nM
- GI50 [20]: 33.9 nM
- TGI [20]: 0.157 µM
- GI50 [21]: 77.7 nM
- TGI [21]: 0.529 µM
- GI50 [22]: 111 nM
- TGI [22]: 0.522 µM
- GI50 [23]: 130 nM
- TGI [23]: 0.294 µM
- GI50 [24]: 102 nM
- TGI [24]: 0.322 µM
- GI50 [25]: 45.4 nM
- TGI [25]: 471 nM
- GI50 [26]: 63.6 nM
- TGI [26]: 0.41 µM
- GI50 [27]: 74.9 nM
- TGI [27]: 732 nM
- GI50 [28]: 68.3 nM
- TGI [28]: 0.4 µM
- GI50 [29]: 86.1 nM
- TGI [29]: 1110 nM
- GI50 [30]: 128 nM
- TGI [30]: 1810 nM
- GI50 [31]: 200 nM
- TGI [31]: 10.3 µM
- GI50 [32]: 295 nM
- TGI [32]: 1340 nM
- GI50 [33]: 32 nM
- TGI [33]: 223 nM
- GI50 [34]: 36.5 nM
- TGI [34]: 322 nM
- GI50 [35]: 34.4 nM
- TGI [35]: 201 nM
- GI50 [36]: 98.2 nM
- TGI [36]: 1.15 µM
- GI50 [37]: 445 nM
- TGI [37]: 1.91 µM
- GI50 [38]: 0.216 µM
- TGI [38]: 0.736 µM
- GI50 [39]: 79.8 nM
- TGI [39]: 0.361 µM
- GI50 [40]: 135 nM
- TGI [40]: 781 nM
- TGI [41]: 563 nM
- GI50 [42]: 102 nM
- TGI [42]: 0.235 µM
- GI50 [43]: 67.4 nM
- TGI [43]: 1.1 µM
- GI50 [44]: 39.9 nM
- TGI [44]: 300 nM
- TGI [45]: 359 nM
- GI50 [46]: 51.3 nM
- TGI [46]: 651 nM
- GI50 [47]: 118 nM
- TGI [47]: 0.253 µM
- GI50 [48]: 33.9 nM
- TGI [48]: 334 nM
- GI50 [49]: 123 nM
- TGI [49]: 1.59 µM
- GI50 [50]: 30.1 nM
- TGI [50]: 141 nM
- GI50 [51]: 57.7 nM
- TGI [51]: 2.45 µM
- GI50 [52]: 48.3 nM
- TGI [52]: 202 nM
- GI50 [53]: 363 nM
- TGI [53]: 5.36 µM
- GI50 [54]: 228 nM
- TGI [54]: 1.41 µM
- GI50 [55]: 121 nM
- TGI [55]: 0.844 µM
- GI50 [56]: 34.5 nM
- TGI [56]: 274 nM
- GI50 [57]: 77.8 nM
- TGI [57]: 0.251 µM

Compound: FC(F)(F)c1cc(Nc2cccc(Oc3ccc(NC4=NCCN4)nc3)c2)ccc1Cl
- GI50 [1]: 1980 nM
- TGI [1]: 3650 nM
- GI50 [2]: 2910 nM
- TGI [2]: 8.66 µM
- GI50 [3]: 1740 nM
- TGI [3]: 3190 nM
- GI50 [4]: 2590 nM
- TGI [4]: 6.89 µM
- GI50 [5]: 1930 nM
- TGI [5]: 4360 nM
- GI50 [6]: 2090 nM
- TGI [6]: 4.75 µM
- GI50 [7]: 1870 nM
- TGI [7]: 3820 nM
- GI50 [8]: 3910 nM
- TGI [8]: 16.9 µM
- GI50 [9]: 1800 nM
- TGI [9]: 3240 nM
- GI50 [10]: 2490 nM
- TGI [10]: 6.73 µM
- GI50 [11]: 2070 nM
- TGI [11]: 4570 nM
- GI50 [12]: 1730 nM
- TGI [12]: 3370 nM
- GI50 [13]: 1420 nM
- TGI [13]: 5290 nM
- GI50 [14]: 2110 nM
- TGI [14]: 5530 nM
- GI50 [15]: 2030 nM
- TGI [15]: 5.24 µM
- GI50 [16]: 2740 nM
- TGI [16]: 8.64 µM
- GI50 [17]: 2090 nM
- TGI [17]: 4440 nM
- GI50 [18]: 2490 nM
- TGI [18]: 6.81 µM
- GI50 [19]: 1980 nM
- TGI [19]: 4630 nM
- GI50 [20]: 2760 nM
- TGI [20]: 11.3 µM
- GI50 [21]: 3200 nM
- TGI [21]: 14.2 µM
- GI50 [22]: 4140 nM
- TGI [22]: 17.9 µM
- GI50 [23]: 2620 nM
- TGI [23]: 6.99 µM
- GI50 [24]: 2530 nM
- TGI [24]: 7.6 µM
- GI50 [25]: 1660 nM
- TGI [25]: 3320 nM
- GI50 [26]: 2350 nM
- TGI [26]: 6.31 µM
- GI50 [27]: 1980 nM
- TGI [27]: 3950 nM
- GI50 [28]: 3970 nM
- TGI [28]: 16.1 µM
- GI50 [29]: 1660 nM
- TGI [29]: 3300 nM
- GI50 [30]: 1920 nM
- TGI [30]: 3730 nM
- GI50 [31]: 2800 nM
- TGI [31]: 14.6 µM
- GI50 [32]: 1940 nM
- TGI [32]: 3890 nM
- GI50 [33]: 2180 nM
- TGI [33]: 5020 nM
- GI50 [34]: 1730 nM
- TGI [34]: 3460 nM
- GI50 [35]: 1830 nM
- TGI [35]: 4220 nM
- GI50 [36]: 2500 nM
- TGI [36]: 6.33 µM
- GI50 [37]: 2050 nM
- TGI [37]: 4.52 µM
- GI50 [38]: 14.8 µM
- TGI [38]: 32 µM
- GI50 [39]: 2190 nM
- TGI [39]: 8.61 µM
- GI50 [40]: 1870 nM
- TGI [40]: 3960 nM
- GI50 [41]: 2020 nM
- TGI [41]: 4470 nM
- GI50 [42]: 1960 nM
- TGI [42]: 8.29 µM
- GI50 [43]: 2050 nM
- TGI [43]: 5.07 µM
- GI50 [44]: 2070 nM
- TGI [44]: 5450 nM
- GI50 [46]: 1740 nM
- TGI [46]: 3690 nM
- GI50 [47]: 2310 nM
- TGI [47]: 9.85 µM
- GI50 [48]: 2060 nM
- TGI [48]: 5340 nM
- GI50 [49]: 2750 nM
- TGI [49]: 11 µM
- GI50 [50]: 2050 nM
- TGI [50]: 4940 nM
- GI50 [51]: 1760 nM
- TGI [51]: 3.65 µM
- GI50 [52]: 1760 nM
- TGI [52]: 3580 nM
- GI50 [53]: 2790 nM
- TGI [53]: 11.3 µM
- GI50 [54]: 3090 nM
- TGI [54]: 9.59 µM
- GI50 [55]: 2220 nM
- TGI [55]: 6.1 µM
- GI50 [56]: 1730 nM
- TGI [56]: 3190 nM
- GI50 [57]: 2810 nM
- TGI [57]: 9.7 µM
